The numbers were not newly measured in US11517536B2, “Pharmaceutical composition comprising pomalidomide” (SYNTHON B.V., priority 2016, dated 2022), which cites them from elsewhere.

For `Nc1cccc2c1C(=O)N(C1CCC(=O)NC1=O)C2=O` (centres unmarked) [Pomalidomide, 4-amino-2-(2,6-dioxopiperidin-3-yl)isoindole-1,3-dione], the solubility result is given as “low”. Moreover, the solubility in water result (drug substance, in water) was “practically insoluble”.
